Each structure is given as a SMILES string. Entries after “also recorded” stand apart in the source; their conditions may differ. Where two headings read alike, the source gives them in different places.

Assay [1] deals with SlSCPx-2 (Spodoptera litura, UniProt D1GJ60). Description: 1,8-ANS fluorescence displacement (competitive binding) assay, wild type rSlSCPx-2. As to conditions: for RBAchol / RBApal: IC50 of wild type for the same ligand (=100%). As for the experimental part: Binding of the fluorescent probe 1, 8-ANS to sterol carrier protein (SlSCPx-2) is measured by relative increase in fluorescent intensity. Steady-state fluorescence spectra were measured on a Cary Eclipse fluorescence spectrophotometer (Varian, Mulgrave, Australia) using a 1-cm path length cuvette. The binding was monitored by measuring the fluorescence signal between 400 and 600 nm following excitation at 350 nm. Slit widths were set to 5 and 10 nm for the excitation and emission monochromators, respectively. […] All measurements were performed at room temperature and the samples were equilibrated for 5 min prior to measurement. At each of the given concentrations, at least three replicates were performed.
(§1) After the incubation, each potential ligand at a serial of concentration (0–100 µM) was added into the 1, 8-ANS-protein mixture for another 2.5 min and the fluorescence intensity of the 1,8-ANS-protein complex was measured as previously described. The control was the reaction of ANS probe and a series of concentration (0–100 µM) of ligands without the protein. To calculate binding activity of the ligands and the protein, the fluorescence intensity of the controls were subtracted from the total fluorescence intensity of the 1, 8-ANS-protein complex in the presence of ligands tested. Each ligand replacement assay was repeated for three times.

Assay [2] concerns S. litura larvae. Description: Diet bioassay for inhibition of growth of S. litura larvae. Format: in vivo, Spodoptera litura. As to conditions: for inhibitory effect on the growth of S. litura larvae: newly hatched larvae, artificial diet with 3, 12 and 48 µg/g diet; for body weight of the treated larvae: 13 days post egg hatching, increasing concentrations 3, 12, 48 µg/g diet, compared to the control. Here is the method:
Newly hatched S. litura larvae (30 larvae per treatment) were reared in artificial diet in presence of each chemical at different concentrations of 3, 12 and 48 µg/g diet. Control larvae were fed in the diet with diluted acetone (solvent for the chemical). Fresh diet was provided every other day. Larvae development was monitored until pupation. Larvae were weighted at 13 days post egg hatching when most of the larvae were at 5th instar stage.

The test system of assay [3] is A. aegypti. Details: method as in PMID 15627652. As to conditions: cited from earlier work.
Assay [4] has as its system H. armigera neonates. Particulars: cited from earlier work.
Assay [5] addresses SlSCPx-2 F110W (Spodoptera litura, UniProt D1GJ60, F500W). Description: biochemical. Format: binding. Here is the method:
(§2) Binding of the fluorescent probe 1, 8-ANS to SlSCPx-2 can be competed with physiological ligands. SlSCPx-2 at 15 µM was incubated with 1, 8-ANS at 15 µM in the reaction buffer (pH 7.0) at room temperature for 2.5 min. […] […] To calculate binding activity of the ligands and the protein, the fluorescence intensity of the controls were subtracted from the total fluorescence intensity of the 1, 8-ANS-protein complex in the presence of ligands tested. Each ligand replacement assay was repeated for three times.
(§3) Various mutations in His-tagged SlSCPx-2 were constructed by using the Stratagene QuickChange Site-Directed Mutagenesis Kit (TAKARA, Dalian, China). Recombined plasmid containing SlSCPx-2 fused with the His-Tag sequence in a pPROEXTM HTa vector was used as a template. Two complementary primer pairs containing the desired mutations were used to construct each gene mutant. All mutant sequences were confirmed by DNA sequencing. The binding affinity of the mutants with the various ligands was examined using the fluorescence displacement assay as described above.

Assay [6] deals with SlSCPx-2 F53A (Spodoptera litura, UniProt D1GJ60, F443A). Description: biochemical. Format: binding. Here is the method:
as §2, §3

Assay [7] concerns the target SlSCPx-2 F53W (Spodoptera litura, UniProt D1GJ60, F443W). Description: biochemical. The assay is classed as binding. Here is the method: as §2, §3
The target in assay [8] is SlSCPx-2 F89A (Spodoptera litura, UniProt D1GJ60, F479A). Description: biochemical. The assay is classed as binding. Here is the method: as §2, §3
For assay [9], the target named is SlSCPx-2 I115M (Spodoptera litura, UniProt D1GJ60, I505M). Description: biochemical. Format: binding. As for the experimental part: as §2, §3
The target in assay [10] is SlSCPx-2 Q131A (Spodoptera litura, UniProt D1GJ60, Q521A). Description: biochemical. Format: binding. Here is the method:
as §2, §3

For assay [11], the target named is SlSCPx-2 W66E (Spodoptera litura, UniProt D1GJ60, W456E). Description: biochemical. Format: binding. Here is the method: as §2, §3
Assay [12] addresses SlSCPx-2 F89W (Spodoptera litura, UniProt D1GJ60, F479W). Description: biochemical. The assay is classed as binding. Here is the method:
as §1, with “Binding of the fluorescent probe 1, 8-ANS to SlSCPx-2 can be competed with physiological ligands. SlSCPx-2 at 15 µM was incubated with 1, 8-ANS at 15 µM in the reaction buffer (pH 7.0) at room temperature for 2.5 min. After” for “After”
as §3

In assay [13] the target is SlSCPx-2 T128A (Spodoptera litura, UniProt D1GJ60, T518A). Description: biochemical. The assay is classed as binding. Here is the method:
as §1, with “Binding of the fluorescent probe 1, 8-ANS to SlSCPx-2 can be competed with physiological ligands. SlSCPx-2 at 15 µM was incubated with 1, 8-ANS at 15 µM in the reaction buffer (pH 7.0) at room temperature for 2.5 min. After” for “After”
as §3

Assay [14] deals with SlSCPx-2 F110A (Spodoptera litura, UniProt D1GJ60, F500A). Description: biochemical. Format: binding. Here is the method:
as §1, with “Binding of the fluorescent probe 1, 8-ANS to SlSCPx-2 can be competed with physiological ligands. SlSCPx-2 at 15 µM was incubated with 1, 8-ANS at 15 µM in the reaction buffer (pH 7.0) at room temperature for 2.5 min. After” for “After”
as §3

[15] abbreviates: wild type, displacement of 15 µM 1,8-ANS from 15 µM SlSCPx-2, pH 7.0, read-out: IC50.
The mark [16] stands for this setting: IC50 of cholesterol (=100%) divided by IC50 of each chemical.

In the case of `C=CCc1cccc(/C=N/NC(=O)COc2ccccc2C)c1O` [AG-205/07775053], in assay [1], the “RBA (relative binding affinity)” value is 0.6%. Further, the IC50 in [1] (setting [15]) came to 8630 ± 393 µM. The “inhibitory effect on the growth of S. litura larvae” value (shortened to “inhibitory effect on the growth”) in assay [2] is “inhibited the growth; also recorded: high inhibitory effect; also recorded: had inhibitory effect”.
For `CCCCCCOC(=O)c1ccc(NC(=O)CCC)cc1` [AG-205/36813059] the same measures were 210%, 23.9 ± 1.38 µM and “inhibited the growth; also recorded: a certain degree of biological activity; also recorded: had inhibitory effect”.
With `Cc1cc(OCCCCc2c(C)n[nH]c2C)ccc1Cl` [AG-664/14117324], in assay [1], the “RBA (relative binding affinity)” value was 1943%. Besides, the IC50 in assay [1] (setting [15]) worked out at 2.58 ± 0.2 µM. In addition, in [2], the “body weight of the treated larvae” value was “decreased, significantly” and the “inhibitory effect on the growth” value is on record as “inhibited the growth; also recorded: had inhibitory effect”.
`CCc1ccc(C(=O)/C=C/Nc2ccc(NC(C)=O)cc2)cc1` [AH-487/41731687]: the “RBA (relative binding affinity)” value in [1] is 1166%. The IC50 in assay [1] (setting [15]) was 4.3 ± 0.63 µM. Further, in [2], the “body weight of the treated larvae” value was “decreased, significantly” and the “inhibitory effect on the growth” value is listed as “inhibited the growth; also recorded: had inhibitory effect”.
With `CC(=O)Nc1ccc(Nc2nc(-c3ccc(Cl)c(Cl)c3)cs2)cc1` [AeSCPI-1, reference compound], the “RBA (relative binding affinity)” value in assay [1] is 31%. Moreover, the IC50 in assay [1] (setting [15]) was found to be 161 ± 5.03 µM. Further, the “time to kill the larvae post the treatment” value in assay [3] (A. aegypti larvae) is recorded as ≤ 3 days. Further, the “lethality to H. armigera neonates” value in assay [4] was “lethal”.
For `COc1cccc(-n2sc3c(c2=S)-c2cc(Cl)ccc2NC3(C)C)c1` [AeSCPI-2, reference compound], the “RBA (relative binding affinity)” value in [1] came out at 91%. Also, in assay [1] (setting [15]), the IC50 is 55 ± 0.66 µM. Moreover, the “mortality in A. aegypti” value in assay [3] is given as “caused death at larva-to-pupa transition period”.
In assay [1], `CCCCC/C=C\C/C=C\C/C=C\C/C=C\CCCC(=O)O` [Arachidonate, arachidonic acid] returned an IC50 of 18.1 ± 0.83 µM. In addition, the “RBA (relative binding affinity)” value in assay [1] (setting [16]) was found to be 277%.
For the compound `CC(C)CCC[C@@H](C)[C@H]1CC[C@H]2[C@@H]3CC=C4C[C@@H](O)CC[C@]4(C)[C@H]3CC[C@]12C` [Cholesterol, reference compound], in assay [1] (wild type), the “RBAchol / RBApal” value turned out to be 100%. For the same compound, the IC50 in [1] (setting [15]) was found to be 50.1 ± 0.8 µM; in assay [5], 231 ± 2.36 µM; in [6] it was 7300 ± 280 µM; in assay [7], 4669 ± 23.2 µM; in assay [8], 1743 ± 1.3 µM; in assay [9], 34.3 ± 1.53 µM. Besides, the IC50 in assay [10] is 2690 ± 34.2 µM; in assay [11] it was 974 ± 10.7 µM; in assay [12], 5.58 ± 1.23 µM; in assay [13], 20.8 ± 1.32 µM.
Regarding `CC(C)[C@@H](C)/C=C/[C@@H](C)[C@H]1CC[C@H]2C3=CC=C4C[C@@H](O)CC[C@]4(C)[C@H]3CC[C@]12C` [Ergosterol], in [1], the IC50 stood at 167.6 ± 0.34 µM and the “RBA (relative binding affinity)” value amounted to 30%.
`CCCCC/C=C\C/C=C\CCCCCCCC(=O)O` [Linoleic acid]: in assay [1], the “RBA (relative binding affinity)” value worked out at 35%. Moreover, the IC50 in assay [1] (setting [15]) stood at 143 ± 0.99 µM.
As for `CCCCCCCC(=O)O` [Octanoate, reference compound], the “RBA (relative binding affinity)” value in assay [1] (setting [16]) turned out to be 23%. In addition, the IC50 in assay [1] (setting [15]) stood at 217.9 ± 1.53 µM.
With `CCCCCCCC/C=C\CCCCCCCC(=O)O` [Oleic acid], in assay [1], the IC50 worked out at 24.4 ± 1.14 µM and the “RBA (relative binding affinity)” value is 206%.
As to `CCCCCCCCCCCCCCCC(=O)O` [Palmitic acid], the “RBA (relative binding affinity)” value in [1] is 85%. Moreover, in assay [1] (wild type), the “RBAchol / RBApal” value came to 100%. The 50% inhibitory concentration (IC50) in assay [1] (setting [15]) is 59.1 ± 1.29 µM; in assay [5], 503.3 ± 2.7 µM; in assay [6], 71.7 ± 0.84 µM; in [7], 5777 ± 28 µM; in assay [9], 6617 ± 38.2 µM; in assay [10] it was 354.8 ± 2.55 µM. The IC50 in [11] was determined as 67.3 ± 3.43 µM; in assay [14], 41.7 ± 1.62 µM; in assay [12] it was 77.5 ± 1.51 µM; in [13], 32.8 ± 1.52 µM.
Regarding `CCCCCCCCCCCCCCCCCC(=O)O` [Stearic acid], in [1], the “RBA (relative binding affinity)” value is given as 126%. Also, in assay [1] (setting [15]), the IC50 turned out to be 39.8 ± 1.17 µM.
For `CC[C@H](/C=C/[C@@H](C)[C@H]1CC[C@H]2[C@@H]3CC=C4C[C@@H](O)CC[C@]4(C)[C@H]3CC[C@]12C)C(C)C` [Stigmasterol], in assay [1], the IC50 is 190 ± 2.29 µM and the “RBA (relative binding affinity)” value is on record as 26%.

As usually defined, the IC50 is the concentration at which inhibition is half-maximal.

The values above are taken from PMC3893073, “Structural and Functional Analyses of a Sterol Carrier Protein in Spodoptera litura” (PLoS ONE, 2014).
